Results taken from patent US20220218701A1, “COMPOSITIONS AND METHODS COMPRISING ENDOTHELIN A RECEPTOR ANTAGONISTS AND ANDROGEN THERAPIES” (priority 2019, published 2022).
Entries after “also recorded” stand apart in the source; their conditions may differ.

Columns and labels:
[1] = system: breast cancer osteosclerotic bone metastasis; conditions: mouse, in vivo; cited from earlier work
[2] = system: castrate-resistant prostate cancer (CRPC); conditions: phase 2, 288 men with CRPC, cited from earlier work
[3] = system: prostate cancer bone metastasis; conditions: in vivo; cited from earlier work
osteoblast = conditions: cited from earlier work
metastatic CRPC [4] = conditions: cited from earlier work
[5] = system: metastatic prostate cancer; conditions: cited from earlier work
ETAR = molecular target: T1, ETAR (Mus musculus, UniProt Q61614); test: Il-6 expression (RT-PCR) in calvarial osteoblasts treated with ET-1; type: cell-based; conditions: 100 μM zibotentan pre-treatment six hours, then 10 nM ET-1 four hours
T1 construct: Murine calvarial osteoblasts were collected and cultured as previously described; endogenous in cells; host or cells: primary murine calvarial osteoblasts
T1 sequence (Q61614 21-427): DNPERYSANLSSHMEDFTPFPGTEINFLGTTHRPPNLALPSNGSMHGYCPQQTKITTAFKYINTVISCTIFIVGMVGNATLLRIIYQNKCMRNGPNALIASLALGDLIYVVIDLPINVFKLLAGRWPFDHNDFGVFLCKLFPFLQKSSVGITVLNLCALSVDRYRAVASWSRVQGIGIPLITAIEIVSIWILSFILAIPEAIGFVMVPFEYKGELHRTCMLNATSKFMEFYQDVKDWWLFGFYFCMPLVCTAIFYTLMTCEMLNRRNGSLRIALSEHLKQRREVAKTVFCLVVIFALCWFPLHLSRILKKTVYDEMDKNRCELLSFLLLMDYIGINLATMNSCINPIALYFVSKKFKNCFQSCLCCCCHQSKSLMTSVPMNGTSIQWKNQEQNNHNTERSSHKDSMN
Procedure: Calvarial osteoblasts were cultured and pre-treated with or without 100 μM zibotentan for six hours followed by treatment with or without 10 nM ET-1 for four hours. RNA has then harvested and analyzed for the expression of Il-6, a marker of ET-1 action in osteoblasts. Il-6 expression was normalized to the housekeeping gene Rpl32. Data was analyzed using one-way ANOVA followed by Tukey's multiple comparison test.
Murine calvarial osteoblasts were collected and cultured as previously described^7. Two days post-confluence, osteoblasts were treated in triplicate with or without 100 μM zibotentan for six hours. This was followed by treatment with or without 10 nM ET-1 for four hours. RNA was collected using Direct-zol™ RNA MiniPrep Plus kit (Zymo, Irvine, Calif.) according to the manufacturer's directions. RNA was then analyzed by RT-PCR using the iTaq Universal SYBR Green One-Step Kit and a C1000 Thermal Cycler with a CFX96 fluorescent real-time attachment (Bio-Rad, Hercules, Calif.) using the following primers: Il-6: F, ccg gag agg aga ctt cac ag; R, gga aat tgg ggt agg aag ga; and Rpl32: F, cag ggt gcg gag aag gtt caa ggg; R, ctt aga gga cac gtt gtg agc aat. […] Changes in mRNA concentration were determined by subtracting […] (Δ=CtIl-6−CtRpl32). […] The fold difference was calculated as 2^ε.

[6] = system: ARCaPM prostate cancer cell line; test: ARCaPM prostate cancer bone metastasis model, intracardiac inoculation, castration or sham surgery; type: in vivo, athymic nude mice
Procedure: Forty-eight male athymic nude mice either underwent castration or sham surgery at four weeks of age. At 5 weeks of age, mice were inoculated with ARCaPM prostate cancer cell line into the left cardiac ventricle. […] Two days later, mice began zibotentan 25 mg/kg/day or vehicle control by gavage.
(§1) Forty-eight HSD athymic nude male mice were obtained from Harlan Sprague Dawley (Envigo, Indianapolis, Ind.) after undergoing castration or sham surgery. At five weeks of age, mice were anesthetized using isoflurane vaporizer anesthesia. ARCaPM prostate cancer cells were washed, resuspended in PBS, and inoculated into the left cardiac ventricle at a volume of 100 μl containing 1×10^5 cells, as previously described. Starting at seven days post-inoculation, mice were weighed every 2-3 days.
Zibotentan is an ETAR-specific antagonist and was obtained from AstraZeneca (Cambridge, England). Zibotentan was dissolved in 1% polysorbate 80 at a concentration of 5 mg/ml. Mice in the treatment group received zibotentan 25 mg/kg/day. Mice in the vehicle control group received an equivalent volume of 1% polysorbate 80 via gavage. Gavage treatments were started two days after the intracardiac inoculations (5 weeks+2 days of age) seven days/week. The dosing scheduled was changed to five days/week at 59 days post-inoculation.
(§2) Mice were anesthetized using an isoflurane vaporizer anesthetic unit and underwent radiographic imaging using a Faxitron UltraFocus 60 Digital Radiographic Unit (Faxitron, Tucson, Ariz.) every 2-4 weeks with attention paid to the appearance of sclerotic or lytic skeletal lesions.
Following euthanasia, mouse femora, tibiae, humeri, spines and other bones were harvested and fixed in 10% buffered formalin for 48 hours and decalcified in Immunocal (Decal Chemical Corp, Suffern, N.Y.) for an additional 48 hours. Bones were rinsed, processed and paraffin embedded. Blocks were cut into 5 μm sections, mounted onto charged glass slides, and air-dried overnight.
Static histomorphometric analysis was performed on embedded samples stained with hematoxylin, eosin, and orange G, a bone matrix stain. Images of the samples were taken at 4× with Nikon Eclipse 90i upright microscope and Nikon HD Cooled Color Digital Camera DXM1200C paired with Nikon ACT-1C software. Each sample produced 10 to 30 tiled scans of the whole specimen and were stitched using Adobe Photoshop CC. Tumor area was traced and measured on Adobe Photoshop CC with Cintiq 22HD touch (Wacom) tablet PC and stylus. Then, measured tumor area was divided by each subject's age in days for further statistical analysis.
Forty-eight male athymic nude mice underwent castration (24 mice) or sham surgery (24 mice) at three weeks of age. At five weeks of age, ARCaPM prostate cancer cells (1×10^5 cells in 100 μl) were inoculated into the left cardiac ventricle. […] Two days later, zibotentan 25 mg/kg/day or vehicle control treatments by gavage were started. This strategy produced four experimental groups: vehicle+sham (Veh+Sham), vehicle+castrate (Veh+Castr), zibotentan+sham (Zibo+Sham), and zibotentan+castrate (Zibo+Castr) (FIG. 2).

[7] = as reported by the applicant's group; cited from earlier work
[8] = system: non-metastatic prostate cancer; conditions: phase 3, monotherapy, non-metastatic disease; stopped early; cited from earlier work
[9] = molecular target: T2, endothelin B receptor (ETBR) (Homo sapiens, UniProt P24530); conditions: cited from earlier work
T2 sequence (P24530 27-442): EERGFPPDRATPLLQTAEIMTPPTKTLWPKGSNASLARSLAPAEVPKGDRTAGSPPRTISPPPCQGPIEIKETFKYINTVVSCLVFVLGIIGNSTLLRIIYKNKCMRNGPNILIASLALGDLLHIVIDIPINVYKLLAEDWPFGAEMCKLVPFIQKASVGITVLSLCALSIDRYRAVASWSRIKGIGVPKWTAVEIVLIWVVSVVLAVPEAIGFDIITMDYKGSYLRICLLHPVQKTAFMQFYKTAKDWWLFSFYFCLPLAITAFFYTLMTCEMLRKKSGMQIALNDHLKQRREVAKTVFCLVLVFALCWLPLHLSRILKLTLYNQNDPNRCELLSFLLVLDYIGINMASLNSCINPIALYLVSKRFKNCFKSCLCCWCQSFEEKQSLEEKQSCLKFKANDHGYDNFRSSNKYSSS

ET-1 = test: Serum ET-1 ELISA at euthanasia in the ARCaPM model; type: in vivo, mice
Procedure: Sera were collected at euthanasia and frozen. Thawed sera were analyzed for ET-1 concentration using ELISA in the four experimental groups and further subdivided into the presence or absence of prostate cancer lesions. Data was analyzed using two-way ANOVA. Treatment with zibotentan was a significant source of statistical variation. Blood was collected at euthanasia. Sera was collected using serum-separator centrifuge tubes (BD Microtainer®, SST, Becton Dickinson, Franklin Lakes, N.J.), and frozen at −80° C. for later analyses. ET-1 concentration was measured in thawed sera using an ET-1 colorimetric ELISA kit (R&D Systems, Minneapolis, Minn.) and a BioTek Synergy HTX plate reader (Winooski, Vt.).

[10] = Body weight and adverse effects in the ARCaPM model; type: in vivo, athymic nude mice
Procedure: Mice body weights were measured starting at 7 days post-inoculation and continued every 2-3 days until the completion of the experiment at 152 days. Two days after inoculation, mice began to receive zibotentan or vehicle control. Due to potential adverse effects in the Zibo+Castr group, the dosing was reduced to 5 days/week starting at day 59 post inoculation. Veh=vehicle control; Zibo=zibotentan; Sham=sham surgery; Castr=castration
as §1, §2
The mice underwent radiographic imaging every 2-4 weeks to monitor for the development of bone lesions. Mice were also monitored frequently for abnormal behavior indicating the presence of a large tumor burden. Euthanasia was performed according to pre-determined humane endpoints—15% weight loss, paralysis, skeletal fractures, or any other signs of distress. Mice were weighed every 2-3 days (FIG. 3). As expected, mice in the castration groups had less weight gain compared to the sham groups, as has been reported elsewhere.

metastatic CRPC [11] = conditions: phase 2, 312 men with metastatic CRPC; increased from 17.3; cited from earlier work
[12] = Zibo + Castr group, zibotentan 25 mg/kg/day gavage
[13] = Zibo + Sham group, zibotentan 25 mg/kg/day gavage
[14] = Zibo+Sham vs Veh+Sham and Veh+Castr groups
[15] = effect of castration in zibotentan treated groups, Zibo+Castr vs. Zibo+Sham

CCCCN(CCCC)C(=O)CN1C[C@H](c2ccc3c(c2)OCO3)[C@@H](C(=O)O)[C@@H]1c1ccc(OC)cc1 [atrasentan]
formation of osteoblastic lesions [1]: blocked
tumor progression outside of bone [1]: not tumor progression outside of bone
prostate-specific antigen (PSA) progression [2]: delayed
time to progression ([2]; increased from 129): 196 days
bone lesions [3]: significantly reduced
lesions outside of the skeleton such as adrenal gland and liver [3]: not lesions outside of the skeleton
anabolic effects of ET-1 on the osteoblast (osteoblast): block
overall or progression-free survival compared to placebo (metastatic CRPC [4]; men with metastatic CRPC treated with docetaxel): did not improve
survival (metastatic CRPC [4]; patients with the highest circulating levels of bone turnover markers): survival benefit
time to progression (primary endpoint) ([5]; phase 3, 809 men with metastatic disease): did not reduce
bone alkaline phosphatase progression ([5]; phase 3, secondary analyses): did reduce

COc1nc(C)cnc1NS(=O)(=O)c1cccnc1-c1ccc(-c2nnco2)cc1 [zibotentan]
Il-6 expression (marker of ET-1 action, normalized to Rpl32) (ETAR): prevented the increase in Il-6 expression; also recorded: blocks ETAR signaling
number of skeletal lesions, Left leg Prox tibia [6, 12]: 1
number of soft tissue lesions, TOTAL [6, 12]: 0
number of skeletal lesions, Left leg Dist femur [6, 13]: 1
number of skeletal lesions, Left leg Prox tibia [6, 13]: 1
number of skeletal lesions, Maxilla [6, 13]: 2
number of skeletal lesions, Rib [6, 13]: 1
number of skeletal lesions, Right arm Prox humerus [6, 13]: 1
number of skeletal lesions, Right arm Prox radius [6, 13]: 1
number of skeletal lesions, TOTAL [6, 13]: 8
number of skeletal lesions, Thoracic spine T10 [6, 13]: 1
number of soft tissue lesions, Adrenal Right [6, 13]: 1
number of soft tissue lesions, Eye Left [6, 13]: 1
number of soft tissue lesions, TOTAL [6, 13]: 2
time to bone-specific tumor events ([6]; Zibo+Castr compared to Zibo+Sham group, p=0.0250): longer
detectable tumor at the completion of the experiment ([6]; Zibo+Castr group, day 152): No mouse
survival ([6]; Zibo+Castr vs Veh+Sham groups): no survival difference
time to a tumor event (tumor-free status) ([6]; Zibo+Castr vs Zibo+Sham group, p=0.0149): significantly longer time to a tumor event
radiographically apparent lesions at the end of the experiment ([6]; Zibo+Castr, 152 days): lack of radiographically apparent lesions
survival (Kaplan-Meier) ([6]; Zibo+Sham group, p=0.0045): significantly shorter survival
skeletal lesion area (histomorphometry) [6, 14]: No significant differences
tumor area adjusted to the day post-inoculation of euthanasia [6, 14]: differences among the groups were not detected
survival ([6]; absence of androgen, Zibo+Castr vs. Veh+Castr, p=0.0050): improved survival
number of skeletal lesions [6, 15]: reduced the number of skeletal lesions
survival [6, 15]: increased survival
survival ([6]; sham-operated mice, Zibo+Sham vs. Veh+Sham, p=0.0171): decrease survival
side effect underlying gastrointestinal effects [7]: immune-related damage of nasal olfactory epithelium leading to aerophagia and intestinal distention
overall survival (primary outcome) [8]: lack of effect
affinity for the endothelin B receptor (ETBR) [9]: no affinity
serum ET-1 concentration (ET-1; zibotentan-treated tumor-bearing mice vs tumor-free): trend for higher serum ET-1
serum ET-1 concentration (ET-1; zibotentan-treated vs vehicle control mice, sera at euthanasia): significant increase; also recorded: higher
body weight gain ([10]; Zibo+Castr group): lack of significant weight gain was more evident
radiographic images, intestinal air ([10]; Zibo+Castr group): intestinal gas distension within the stomach and intestines
mice that lost more than 15% of weight and were euthanized ([10]; Zibo+Castr group, 34 and 42 days post-inoculation, no tumor found): Two
abdominal distension ([10]; Zibo+Castr group, within 2-4 weeks of treatment initiation): developed abdominal distension
unintended consequences of zibotentan and castration ([10]; combination of zibotentan and castration): weight loss, diffuse gas distention within the stomach and intestines, and respiratory epithelial inflammation
overall survival (metastatic CRPC [11]): 24.5 months
